In one assay the target is T1, mouse GSDMD WT-EGFP (Mus musculus, UniProt Q9D8T2).
T1 construct: GSDMD WT fused to EGFP, transiently expressed in AML12 cells, cell lysate (MST); CETSA in AML12 cells with no transfection stated
T1 sequence (Q9D8T2 1-487): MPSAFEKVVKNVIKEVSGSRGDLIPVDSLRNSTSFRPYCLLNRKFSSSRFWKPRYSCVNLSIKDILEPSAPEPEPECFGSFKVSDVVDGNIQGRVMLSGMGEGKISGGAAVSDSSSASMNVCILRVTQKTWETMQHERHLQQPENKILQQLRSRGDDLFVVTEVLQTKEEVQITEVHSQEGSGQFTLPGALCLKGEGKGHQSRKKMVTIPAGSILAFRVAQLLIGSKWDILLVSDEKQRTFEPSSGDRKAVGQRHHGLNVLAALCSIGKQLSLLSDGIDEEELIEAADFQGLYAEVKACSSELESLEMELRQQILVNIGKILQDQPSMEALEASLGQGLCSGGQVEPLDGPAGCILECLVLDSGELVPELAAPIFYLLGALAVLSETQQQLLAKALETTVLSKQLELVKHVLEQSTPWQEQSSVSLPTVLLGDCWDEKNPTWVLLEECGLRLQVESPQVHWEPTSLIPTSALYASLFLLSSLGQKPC
The experiment in a line: microscale thermophoresis in cell lysate. Format: biochemical. (In general: MST reads how a fluorescent partner responds to local heating, with and without ligand.)

Assay [1] addresses T2, human GSDMD WT-EGFP (Homo sapiens, UniProt P57764).
T2 construct: GSDMD WT fused to EGFP, transiently expressed in HEK293T cells, cell lysate (MST) or cells (CETSA)
T2 sequence (P57764 1-484): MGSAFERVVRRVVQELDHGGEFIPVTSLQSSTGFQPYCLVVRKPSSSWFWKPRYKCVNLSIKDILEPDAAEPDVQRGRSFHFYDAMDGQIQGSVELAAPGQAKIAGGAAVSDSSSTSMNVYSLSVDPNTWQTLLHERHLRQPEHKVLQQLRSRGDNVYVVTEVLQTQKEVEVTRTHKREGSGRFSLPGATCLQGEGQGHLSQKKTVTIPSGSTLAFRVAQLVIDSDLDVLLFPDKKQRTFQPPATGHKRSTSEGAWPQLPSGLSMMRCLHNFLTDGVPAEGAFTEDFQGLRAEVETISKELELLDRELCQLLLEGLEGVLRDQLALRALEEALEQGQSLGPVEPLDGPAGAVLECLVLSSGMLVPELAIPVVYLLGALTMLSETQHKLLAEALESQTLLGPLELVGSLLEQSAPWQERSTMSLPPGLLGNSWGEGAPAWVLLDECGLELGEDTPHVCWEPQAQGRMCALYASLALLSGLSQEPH
The experiment in a line: microscale thermophoresis in cell lysate. Format: biochemical.

Assay [2] has as its target T2, human GSDMD WT-EGFP. The experiment in a line: cellular thermal shift assay (CETSA), western blot. Format: cell-based. To be noted: transfected HEK293T cells, 2 h. For orientation: A western blot detects proteins with antibodies after separation by electrophoresis.

Structures are written as SMILES.

Here are results for two molecules from PMC8841757, “Direct Inhibition of GSDMD by PEITC Reduces Hepatocyte Pyroptosis and Alleviates Acute Liver Injury in Mice” (Frontiers in Immunology, 2022).

As a reminder, the Kd is a measure of binding affinity in units of concentration. The low end stands for tighter binding, the high end for weaker binding.

With `S=C=NCCc1ccccc1` [PEITC], the dissociation constant Kd on mouse GSDMD WT-EGFP is 0.308 µM; at human GSDMD WT-EGFP [1] it was 0.23 µM. For the same molecule, the “thermal stability (CETSA)” value at human GSDMD WT-EGFP [2] (3 μM PEITC) is given as “PEITC reduced the thermal stability of human WT-GSDMD”.
Turning to `COc1nccnc1NS(=O)(=O)c1ccc(NC(=O)/C=C/c2ccc([N+](=O)[O-])s2)cc1` [NSA], binding at human GSDMD WT-EGFP [1] was characterised by a dissociation constant (Kd) of 11.2 µM. Also, the “thermal stability (CETSA)” value on human GSDMD WT-EGFP [2] (3 μM NSA) was “NSA enhanced the thermal stability of human WT-GSDMD”.
